Assay results published in patent US7115708B2 (priority 2001, dated 2006).

Legend:
[1] = system: MIA PaCa-2; assay: cells; settings: Homo sapiens, MIA PaCa-2, read-out: Estimated IC50 (50% Inhibition Concentration)
[2] = system: MCF-7
[3] = system: MCF-7; assay: cells; settings: Homo sapiens, MCF7, read-out: Estimated IC50 (50% Inhibition Concentration)
[4] = system: MIA PaCa-2
[5] = system: tumor patients; settings: in vivo; cited from earlier work

Molecule	IC50 [1]	Estimated TGI (Total Growth Inhibition) [2]	IC50 [3]	Estimated TGI (Total Growth Inhibition) [4]	patients with stable tumor disease [5]	toxicity reported [5]	tumor patients with regressive disease [5]
CO[C@@]12[C@H](COC(N)=O)C3=C(C(=O)C(C)=C(N)C3=O)N1C[C@@H]1N[C@@H]12 [Mitomycin]	28 nM	180 nM	35 nM	150 nM			
^90Y-DOTA-lanreotide					roughly 35%	No acute or chronic severe hematological toxicity	15%
